Measured values: ChEMBL document CHEMBL5131409, “Synthesis and characterization of chiral 6-azaspiro[2.5]octanes as potent and selective antagonists of the M4 muscarinic acetylcholine receptor” (Bioorg Med Chem Lett, 2022)

What was measured:
[1] = Cmax in rat plasma at 3 mg/kg, ip; assay type: ADME, organism-based; parameters: dose 3 mg/kg, route ip
[2] = target: T1, Muscarinic acetylcholine receptor M5 (Rattus norvegicus, UniProt P08911); experiment: Inhibition of rat muscarinic acetylcholine M5 receptor expressed in CHO cells co-expressing Gqi5 preincubated with compound followed by acetylcholine addition at EC80 concentration by calcium mobilization assay; assay type: functional, cell-based
T1 sequence (P08911 whole entry): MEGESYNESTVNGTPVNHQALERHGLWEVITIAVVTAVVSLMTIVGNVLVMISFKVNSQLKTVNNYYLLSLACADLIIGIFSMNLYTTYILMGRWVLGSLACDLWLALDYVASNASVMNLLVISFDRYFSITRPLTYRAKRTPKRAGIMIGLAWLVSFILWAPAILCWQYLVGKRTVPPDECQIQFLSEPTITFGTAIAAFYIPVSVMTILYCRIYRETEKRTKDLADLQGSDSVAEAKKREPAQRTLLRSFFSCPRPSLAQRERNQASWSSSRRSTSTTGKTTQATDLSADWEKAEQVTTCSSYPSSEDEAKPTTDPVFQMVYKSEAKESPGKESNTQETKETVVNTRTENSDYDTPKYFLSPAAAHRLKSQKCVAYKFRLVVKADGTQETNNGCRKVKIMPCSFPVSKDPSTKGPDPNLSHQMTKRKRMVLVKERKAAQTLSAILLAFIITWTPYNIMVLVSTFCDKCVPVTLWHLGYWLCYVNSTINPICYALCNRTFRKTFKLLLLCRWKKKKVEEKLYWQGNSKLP

[3] = target: T2, Muscarinic acetylcholine receptor M2 (Rattus norvegicus, UniProt P10980); experiment: Inhibition of rat muscarinic acetylcholine M2 receptor expressed in CHO cells co-expressing Gqi5 preincubated with compound followed by acetylcholine addition at EC80 concentration by calcium mobilization assay; assay type: functional, cell-based
T2 sequence (P10980 whole entry): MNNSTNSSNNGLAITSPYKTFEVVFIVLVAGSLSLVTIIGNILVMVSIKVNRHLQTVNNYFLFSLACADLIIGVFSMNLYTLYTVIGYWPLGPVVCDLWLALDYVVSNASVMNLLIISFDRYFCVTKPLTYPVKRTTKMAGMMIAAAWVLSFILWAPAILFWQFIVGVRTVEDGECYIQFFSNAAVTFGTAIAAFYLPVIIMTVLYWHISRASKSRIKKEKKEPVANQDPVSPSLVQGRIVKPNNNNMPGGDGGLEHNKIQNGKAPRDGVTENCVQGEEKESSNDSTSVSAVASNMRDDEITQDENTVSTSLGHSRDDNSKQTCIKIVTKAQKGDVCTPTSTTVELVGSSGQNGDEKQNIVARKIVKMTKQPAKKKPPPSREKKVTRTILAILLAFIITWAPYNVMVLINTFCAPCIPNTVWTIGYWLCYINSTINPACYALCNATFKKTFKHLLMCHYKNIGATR

[4] = AUC (0.25 to last) in mouse brain at 3 mg/kg, ip; assay type: ADME, organism-based; conditions: in vivo
[5] = Cmax in mouse brain at 3 mg/kg, ip; assay type: ADME, organism-based; parameters: dose 3 mg/kg, route ip
[6] = target: T3, Muscarinic acetylcholine receptor M2 (Homo sapiens, UniProt P08172); experiment: Inhibition of human muscarinic acetylcholine M2 receptor expressed in CHO cells co-expressing Gqi5 in the presence of acetylcholine at EC80 concentration by calcium mobilization assay; assay type: functional, cell-based
T3 sequence (P08172 whole entry): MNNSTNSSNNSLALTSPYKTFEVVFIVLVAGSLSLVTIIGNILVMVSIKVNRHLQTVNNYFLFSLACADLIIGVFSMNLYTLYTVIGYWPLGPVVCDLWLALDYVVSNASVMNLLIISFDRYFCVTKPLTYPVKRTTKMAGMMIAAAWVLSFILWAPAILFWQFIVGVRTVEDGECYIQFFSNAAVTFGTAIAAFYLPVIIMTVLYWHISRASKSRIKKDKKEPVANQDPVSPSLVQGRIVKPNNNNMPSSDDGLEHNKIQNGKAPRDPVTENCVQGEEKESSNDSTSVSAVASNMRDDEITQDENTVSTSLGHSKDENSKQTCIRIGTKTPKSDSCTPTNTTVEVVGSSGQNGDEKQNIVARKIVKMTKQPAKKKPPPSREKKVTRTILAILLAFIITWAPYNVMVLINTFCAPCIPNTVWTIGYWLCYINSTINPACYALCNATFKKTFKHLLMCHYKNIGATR

Cytochrome P450 1A2 = target: T4, Cytochrome P450 1A2 (Homo sapiens, UniProt P05177); experiment: Inhibition of CYP1A2 in human liver microsomes using cocktail of isoform-specific probe substrate; assay type: ADME, Microsome
T4 sequence (P05177 whole entry): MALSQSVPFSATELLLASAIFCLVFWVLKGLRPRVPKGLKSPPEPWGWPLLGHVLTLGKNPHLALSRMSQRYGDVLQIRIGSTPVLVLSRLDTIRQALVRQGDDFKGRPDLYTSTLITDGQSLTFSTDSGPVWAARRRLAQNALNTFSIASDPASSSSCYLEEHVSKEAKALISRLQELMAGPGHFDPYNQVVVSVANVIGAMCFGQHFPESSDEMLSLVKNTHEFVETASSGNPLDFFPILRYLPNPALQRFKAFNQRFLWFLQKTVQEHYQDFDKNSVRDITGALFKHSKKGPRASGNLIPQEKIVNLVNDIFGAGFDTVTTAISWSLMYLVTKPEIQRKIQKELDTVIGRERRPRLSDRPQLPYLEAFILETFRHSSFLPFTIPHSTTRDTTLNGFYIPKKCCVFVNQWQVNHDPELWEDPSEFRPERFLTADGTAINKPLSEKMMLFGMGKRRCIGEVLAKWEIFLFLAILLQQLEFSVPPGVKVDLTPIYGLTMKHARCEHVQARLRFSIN

[7] = target: Muscarinic acetylcholine receptor M3 (Rattus norvegicus, UniProt P08483); experiment: Inhibition of rat muscarinic acetylcholine M3 receptor expressed in CHO cells co-expressing Gqi5 preincubated with compound followed by acetylcholine addition at EC80 concentration by calcium mobilization assay; assay type: functional, cell-based
[8] = Ratio of AUC (0.25 to last) in mouse brain to plasma at 3 mg/kg, ip; assay type: ADME, organism-based; conditions: read-out: Ratio AUC
[9] = target: T5, Muscarinic acetylcholine receptor M4 (Homo sapiens, UniProt P08173); experiment: Displacement of [3H]-NMS from human muscarinic acetylcholine M4 receptor expressed in CHO cell membrane by competitive binding assay; assay type: cell membranes
T5 sequence (P08173 whole entry): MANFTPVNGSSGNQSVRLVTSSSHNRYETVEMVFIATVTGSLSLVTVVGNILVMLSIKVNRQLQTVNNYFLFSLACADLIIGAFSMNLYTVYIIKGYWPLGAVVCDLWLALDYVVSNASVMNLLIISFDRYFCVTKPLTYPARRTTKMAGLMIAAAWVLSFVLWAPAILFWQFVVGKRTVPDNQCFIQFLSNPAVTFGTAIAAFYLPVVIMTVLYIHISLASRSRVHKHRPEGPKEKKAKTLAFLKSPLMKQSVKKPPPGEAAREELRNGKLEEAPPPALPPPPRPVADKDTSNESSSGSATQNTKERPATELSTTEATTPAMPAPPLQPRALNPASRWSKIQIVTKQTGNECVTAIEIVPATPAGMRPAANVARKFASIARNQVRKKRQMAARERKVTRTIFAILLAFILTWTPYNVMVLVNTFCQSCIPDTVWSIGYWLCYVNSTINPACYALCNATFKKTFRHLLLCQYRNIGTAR

Muscarinic acetylcholine receptor M3, sequence (P08483 whole entry): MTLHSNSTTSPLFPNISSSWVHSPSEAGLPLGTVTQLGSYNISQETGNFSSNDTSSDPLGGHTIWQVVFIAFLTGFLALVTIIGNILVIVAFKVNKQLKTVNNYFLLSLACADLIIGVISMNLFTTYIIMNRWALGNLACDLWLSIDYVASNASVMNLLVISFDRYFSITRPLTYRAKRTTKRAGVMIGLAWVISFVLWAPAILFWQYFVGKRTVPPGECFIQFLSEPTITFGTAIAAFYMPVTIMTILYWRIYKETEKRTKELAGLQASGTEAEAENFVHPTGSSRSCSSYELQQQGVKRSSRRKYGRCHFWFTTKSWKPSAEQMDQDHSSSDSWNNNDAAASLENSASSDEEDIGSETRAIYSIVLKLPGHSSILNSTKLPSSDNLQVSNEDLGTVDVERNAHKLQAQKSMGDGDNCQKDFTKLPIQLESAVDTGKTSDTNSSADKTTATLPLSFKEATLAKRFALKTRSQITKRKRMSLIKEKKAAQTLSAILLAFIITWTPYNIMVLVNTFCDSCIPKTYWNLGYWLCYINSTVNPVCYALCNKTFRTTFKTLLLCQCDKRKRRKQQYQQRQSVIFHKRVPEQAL

A Cmax [1] of 6700 ng/mL, an IC50 [2] of over 10 µM and an IC50 [3] of over 10 µM were found for `CC(=O)Nc1ccc(-c2ccc(NC[C@@H]3CC34CCN(CC3CCOCC3)CC4)nn2)cc1` in this work. It also gave an AUClast [4] of 3980 ng·h/g, a Cmax [5] of 738 ng/g and an IC50 [6] of over 10 µM. It also gave an IC50 (Cytochrome P450 1A2) of over 30 µM, an IC50 [7] of over 10 µM and a Kp [8] of 0.38. It also gave a Ki [9] of 0.0433 µM.
